Measured values as given in patent US12221432B2, “Estrogen receptor antagonist” (CHIA TAI TIANQING PHARMACEUTICAL GROUP CO., LTD., priority 2018, dated 2025).
Where a name gives a salt, the structure may show the parent alone.

Assays:
[1] = Metabolic stability in liver microsome (SD rat); type: in vitro ADME, SD rats
Procedure: Objective: To determine the metabolic stability of test compounds in the liver microsomes of humans, CD-1 5 mice and SD rats (Corning Co., Ltd., Miaotong Biological Technology Co., Ltd., Miaotong Biological Technology Co., Ltd.).
Procedures: Firstly, eight 96-well plates were prepared, and named T0, T5, T10, T20, T30, T60, NCF60 and BLANK; except for BLANK (added with buffer at 10 μL/well), the plates were added with the solution of compounds at 10 μL/well. Prepared microsomes were added to the 7 plates (80 μL/well), except for the T0 10 plate. The NCF60 plate was added with the buffer at 10 μL/well, and incubated in a 37° C. water bath, and timing was started:
Prepared NADPH cofactor working solution was aliquoted into a 96-well shallow-well plate serving as a loading slot. Each plates was added with the solution to at 10 μL/well by a 96-channel pipette and incubated in a 37° C. water bath to start the reaction:
At each time point, termination solution (cold acetonitrile containing 100 ng/mL Tolbutamide and 100 ng/mL Labetalol as internal standard) was added at 300 μL/well to stop the reaction, and the mixture was mixed well; the mixture was centrifuged at 4000 rpm for 20 minutes to precipitate the protein; the supernatant was transferred at 100 μL/well to a new 96-well plate containing 300 μL/well of HPLC water with a 96-channel pipette, and the mixture was mixed well. […]

[2] = Pharmacokinetics study in rats (cassette); type: in vivo; conditions: female, SD, plasma, rat cassette PK
Excerpt: Experimental objective: To determine the drug concentration in the plasma of the rats at different times after intravenous and oral administration of the test compounds by LC/MS/MS using female SD rats as the test animals. To investigate the pharmacokinetic performance of the test compounds in rats and to evaluate the pharmacokinetic characteristics.
Test animals: 4 healthy female SD rats were divided into 2 groups according to according to the principle of similar weight, 2 in the IV group and 2 in the PO group. Animal used in this study were purchased from Beijing Vital River Laboratory Animal Technology Co., Ltd.
IV group: Appropriate amounts of compounds were weighed respectively, prepared into 2 mg/mL solutions, then mixed to give a 0.5 mg/mL solution, which was stirred and ultrasonicated until a clear state. The vehicle was 15% HP-b-CD.
PO group: An appropriate amount of the IV group solution was taken and diluted to 0.4 mg/mL with 15% HP-b-CD.
Administration: After fasting overnight, the IV group was administered intravenously, and the dose of the test compound was 1 mg/kg; the PO group was administered intragastrically, and the dose of the test compound was 2 mg/kg.
Procedures: For IV group, 200 μL of blood was collected from the jugular vein of the female SD rats at 0.0833, 0.25, 0.5, 1, 2, 4, 8, and 24 hours post-dose, and placed in a commercial anticoagulant tube with EDTA-K2 added in advance. For PO group, 200 μL of blood was collected from the jugular vein of the female SD rats at 0.25, 0.5, 1, 2, 4, 8, 12 and 24 hours post-dose, and placed in a commercial anticoagulant tube with EDTA-K2 added in advance. The blood samples were centrifuged (3,200 g, 4° C., 10 minutes) to give plasma samples, which was transferred to a pre-cooled centrifuge tube, frozen in dry ice, and stored in an ultra-low temperature freezer at −60° C. or lower until the LC-MS/MS analysis. The animals were given free access to food 4 hours after the administration. LC/MS/MS method was used to determine the content of the test compounds in the plasma of […] after intravenous and oral administration. The linear range of the method is 2.00-2000 nM.

[3] = target: T1, CYP2D6 (Homo sapiens, UniProt P10635); assay: Cytochrome P450 isoenzyme inhibition, CYP2D6; type: in vitro ADME; conditions: human liver microsomes; read-out: CYP enzyme inhibition (IC50) 2D6
T1 construct: tissue Corning Co., Ltd; host or cells: human liver microsomes
T1 sequence (P10635 whole entry): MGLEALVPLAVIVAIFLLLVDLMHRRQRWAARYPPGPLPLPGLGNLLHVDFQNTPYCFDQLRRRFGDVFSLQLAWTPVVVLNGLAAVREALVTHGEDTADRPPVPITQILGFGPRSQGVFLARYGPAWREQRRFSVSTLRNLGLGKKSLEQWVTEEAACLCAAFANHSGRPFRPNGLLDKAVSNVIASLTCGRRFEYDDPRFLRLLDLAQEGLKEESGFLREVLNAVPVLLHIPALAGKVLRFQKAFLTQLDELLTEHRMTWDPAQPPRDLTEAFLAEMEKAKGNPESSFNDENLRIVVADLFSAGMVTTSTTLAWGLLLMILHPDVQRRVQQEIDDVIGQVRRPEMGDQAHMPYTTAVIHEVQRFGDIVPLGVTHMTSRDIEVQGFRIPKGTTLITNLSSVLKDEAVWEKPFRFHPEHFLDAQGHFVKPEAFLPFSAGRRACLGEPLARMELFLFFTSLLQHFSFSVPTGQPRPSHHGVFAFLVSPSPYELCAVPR
Excerpt: (§1) Experimental objective: To determine the inhibitory effect of the test compound on the activity of human liver microsomal cytochrome P450 isoenzymes (CYP1A2, CYP2C9, CYP2C19, CYP2D6 and CYP3A4; Corning Co., Ltd.). […]

[4] = target: T2, CYP3A4 (Homo sapiens, UniProt P08684); assay: Cytochrome P450 isoenzyme inhibition, CYP3A4; type: in vitro ADME; conditions: human liver microsomes; read-out: CYP enzyme inhibition (IC50) 3A4
T2 construct: tissue Corning Co., Ltd; host or cells: human liver microsomes
T2 sequence (P08684 whole entry): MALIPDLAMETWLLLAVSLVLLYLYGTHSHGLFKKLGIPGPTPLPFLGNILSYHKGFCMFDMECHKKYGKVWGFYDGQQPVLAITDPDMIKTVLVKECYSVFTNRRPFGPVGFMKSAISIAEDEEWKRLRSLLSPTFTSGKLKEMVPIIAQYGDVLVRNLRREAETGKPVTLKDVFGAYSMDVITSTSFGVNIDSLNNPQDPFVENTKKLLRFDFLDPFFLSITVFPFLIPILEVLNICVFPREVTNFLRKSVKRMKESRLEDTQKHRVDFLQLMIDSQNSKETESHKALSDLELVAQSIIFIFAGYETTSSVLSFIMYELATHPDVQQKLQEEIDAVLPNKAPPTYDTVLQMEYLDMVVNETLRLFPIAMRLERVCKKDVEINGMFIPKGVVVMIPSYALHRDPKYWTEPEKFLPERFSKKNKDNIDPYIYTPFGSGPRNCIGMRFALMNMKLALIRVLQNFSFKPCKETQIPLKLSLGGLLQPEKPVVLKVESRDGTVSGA
Excerpt: as §1

Stability in liver microsomes [1]: 35 | AUC(0-t) ([2]; iv, i.v. 1 mg/kg): 3.55 µM·h | clearance ([2]; iv, i.v. 1 mg/kg): 8.14 mL/min/kg | half-life ([2]; iv, i.v. 1 mg/kg): 6.65 h | Vd ([2]; iv, i.v. 1 mg/kg, read-out: Vdss): 4.46 L/kg | AUC(0-t) ([2]; po, p.o. 2 mg/kg): 5.21 µM·h | Cmax ([2]; po, p.o. 2 mg/kg): 464 nM | Tmax ([2]; po, p.o. 2 mg/kg): 2 h | bioavailability ([2]; po, p.o. 2 mg/kg): 73.3% | IC50 [3]: 25.6 µM | IC50 [4]: 9.8 µM
Structure (SMILES): CC/C(=C(/c1ccc(OCCNC/C=C/C(=O)N(C)C)nc1)c1[nH]c2ccccc2c1Cl)c1ccccc1 [Compound 3 monohydrochloride]
